For orientation: IC50 means the concentration needed to halve the response being measured. A higher IC50 goes with weaker potency. One may read the inhibition as the change of the read-out against control, counted positive when it falls.

From patent publication US8569292B2, “Cyclic inhibitors of 11β-hydroxysteroid dehydrogenase 1” (Vitae Pharmaceuticals, Inc., priority 2008, dated 2013) come the findings set out here.

The target in one experiment is T1, CYP2C9 (Homo sapiens, UniProt P11712).
T1 construct: purchased Invitrogen 2859; host or cells: insect cells infected with baculovirus (microsomes)
Description: Biological Test Example 9: CYP2C9 inhibition (Invitrogen kit, fluorogenic OOMR). The class given is in vitro ADME.

Another experiment addresses 11β-HSD1 (Homo sapiens, UniProt P28845). Description: biochemical. The conditions noted are these: for inhibition at 0.1 µM: read-out: Average % inhibition at 100 nM.
[1] abbreviates: Biological Test Example 1 IC50 (nM).
[2] abbreviates: IC50 Range, Biological Test Example 1.

T1 sequence (P11712 whole entry): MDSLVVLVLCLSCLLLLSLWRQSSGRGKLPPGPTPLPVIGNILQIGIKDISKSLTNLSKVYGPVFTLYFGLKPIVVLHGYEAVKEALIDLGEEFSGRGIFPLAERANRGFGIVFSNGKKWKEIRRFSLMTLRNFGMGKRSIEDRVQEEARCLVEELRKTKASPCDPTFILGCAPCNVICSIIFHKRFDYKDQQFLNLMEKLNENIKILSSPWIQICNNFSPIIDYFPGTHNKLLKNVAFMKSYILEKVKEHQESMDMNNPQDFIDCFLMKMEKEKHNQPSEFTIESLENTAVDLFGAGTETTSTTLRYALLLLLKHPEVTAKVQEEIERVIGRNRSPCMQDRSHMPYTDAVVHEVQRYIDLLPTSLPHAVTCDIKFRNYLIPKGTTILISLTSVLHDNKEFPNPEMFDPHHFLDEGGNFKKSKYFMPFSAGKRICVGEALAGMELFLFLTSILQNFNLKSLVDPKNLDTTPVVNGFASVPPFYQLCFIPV
11β-HSD1, sequence (P28845 whole entry): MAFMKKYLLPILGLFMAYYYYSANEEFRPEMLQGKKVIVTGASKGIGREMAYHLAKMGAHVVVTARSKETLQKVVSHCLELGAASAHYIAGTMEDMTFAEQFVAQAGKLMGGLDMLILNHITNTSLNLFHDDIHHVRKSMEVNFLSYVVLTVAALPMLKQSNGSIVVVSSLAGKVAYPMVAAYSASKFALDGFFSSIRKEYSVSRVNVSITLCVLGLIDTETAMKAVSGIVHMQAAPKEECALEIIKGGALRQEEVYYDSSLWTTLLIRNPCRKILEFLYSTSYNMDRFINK

As to `Cc1cc(-c2ccc([C@H](C)N3CC[C@](CCCN4CCCS4(=O)=O)(c4ccccc4)OC3=O)cc2)ccn1` [EXAMPLE 106, (R)-6-(3-(1,1-dioxo-isothiazolidin-2-yl)propyl)-3-((S)-1-(4-(2-methylpyridin-4-yl)phenyl)ethyl)-6-phenyl-1,3-oxazinan-2-one], the results for the IC50 against CYP2C9, against 11β-HSD1 (setting [1]) and on 11β-HSD1 (setting [2]) were 9.5 µM, 22.7 nM and under 100 nM, respectively. Besides, the inhibition at 0.1 µM at 11β-HSD1 was 79.6%.
The molecule `C[C@@H](c1ccc(-c2cccnc2)cc1)N1CC[C@](CCCO)(c2ccccc2)OC1=O` [EXAMPLE 36, (R)-6-(3-hydroxypropyl)-6-phenyl-3-((S)-1-(4-(pyridin-3-yl)phenyl)ethyl)-1,3-oxazinan-2-one] yielded an IC50 on CYP2C9 of 5.2 µM.
Take `Cc1nnc(CC[C@]2(c3ccccc3)CCN([C@@H](C)c3ccc(-c4ccc(C#N)cn4)cc3)C(=O)O2)s1` [EXAMPLE 146, 6-(4-((S)-1-((R)-6-(2-(5-methyl-1,3,4-thiadiazol-2-yl)ethyl)-2-oxo-6-phenyl-1,3-oxazinan-3-yl)ethyl)phenyl)nicotinonitrile]: the IC50 against CYP2C9 was 6.1 µM; against 11β-HSD1 (setting [1]) it was 17.4 nM; against 11β-HSD1 (setting [2]), under 100 nM. Besides, the inhibition at 0.1 µM at 11β-HSD1 was determined as 78.9%.
At CYP2C9, `C[C@@H](c1ccc(-c2cccnc2)cc1)N1CC[C@](CCO)(c2ccccc2)OC1=O` [EXAMPLE 34, (S)-6-(2-hydroxyethyl)-6-phenyl-3-((S)-1-(4-(pyridin-3-yl)phenyl)ethyl)-1,3-oxazinan-2-one] gave an IC50 of 5.1 µM.
As for `Cc1nnc(CC[C@]2(c3ccccc3)CCN([C@@H](C)c3ccc(-c4ccc(C#N)cn4)cc3)C(=O)O2)o1` [EXAMPLE 145, 6-(4-((S)-1-((R)-6-(2-(5-methyl-1,3,4-oxadiazol-2-yl)ethyl)-2-oxo-6-phenyl-1,3-oxazinan-3-yl)ethyl)phenyl)nicotinonitrile], the IC50 against CYP2C9 is over 30 µM; at 11β-HSD1 (setting [1]) it was 32.8 nM; against 11β-HSD1 (setting [2]) it was under 100 nM. Also, the inhibition at 0.1 µM at 11β-HSD1 amounted to 72.4%.
In the case of `Cc1ccc(-c2ccc([C@H](C)N3CC[C@](CCc4nnc(C)o4)(c4ccccc4)OC3=O)cc2)nn1` [EXAMPLE 12, (R)-6-(2-(5-methyl-1,3,4-oxadiazol-2-yl)ethyl)-3-((S)-1-(4-(6-methylpyridazin-3-yl)phenyl)ethyl)-6-phenyl-1,3-oxazinan-2-one], the half-inhibitory concentration (IC50) on CYP2C9 turned out to be 4 µM.
In turn, `C[C@@H](c1ccc(-c2ccc[n+]([O-])c2)cc1)N1CC[C@](CCCO)(c2ccccc2)OC1=O` [EXAMPLE 38, 3-(4-((S)-1-((R)-6-(3-hydroxypropyl)-2-oxo-6-phenyl-1,3-oxazinan-3-yl)ethyl)phenyl)pyridine 1-oxide] displayed an IC50 against CYP2C9 of over 30 µM.
On to `C[C@@H](c1ccc(-c2ccncc2)cc1)N1CC[C@](CCCO)(c2ccccc2)OC1=O` [EXAMPLE 35, (R)-6-(3-hydroxypropyl)-6-phenyl-3-((S)-1-(4-(pyridin-4-yl)phenyl)ethyl)-1,3-oxazinan-2-one], for which the IC50 at CYP2C9 was determined as 2.2 µM.
On the same count and under the same terms, the figure for `C[C@@H](c1ccc(-c2ccc(N)nc2)cc1)N1CC[C@](CCCO)(c2ccccc2)OC1=O` [EXAMPLE 95, (R)-3-((S)-1-(4-(6-aminopyridin-3-yl)phenyl)ethyl)-6-(3-hydroxypropyl)-6-phenyl-1,3-oxazinan-2-one] is 2.4 µM; for `Cc1ncc(-c2ccc([C@H](C)N3CC[C@](CCCO)(c4ccc(F)cc4)OC3=O)cc2)cn1` [EXAMPLE 137, (R)-6-(4-fluorophenyl)-6-(3-hydroxypropyl)-3-((S)-1-(4-(2-methylpyrimidin-5-yl)phenyl)ethyl)-1,3-oxazinan-2-one] it is 18.4 µM; for `Cc1cc(-c2ccc([C@H](C)N3CC[C@](CCCO)(c4ccccc4)OC3=O)cc2)cc(C)n1` [EXAMPLE 133, (R)-3-((S)-1-(4-(2,6-dimethylpyridin-4-yl)phenyl)ethyl)-6-(3-hydroxypropyl)-6-phenyl-1,3-oxazinan-2-one] it is over 30 µM.
